Data taken from patent US9180118B2, “Thiadiazolidinone derivatives” (University of Rochester, priority 2006, dated 2015).

How the values were obtained:
bcCML progenitor cells = assay: Methylcellulose colony assay, bcCML; assay type: cell-based, human; settings: 20 μM TDZD-8, 18 hours before plating, n=3
Description: Cells were then plated at 50,000 cells/ml in Methocult™ GF H4534 (1% methylcellulose in IMDM, 30% FBS, 1% BSA, 10^−4M 2-mercaptoethanol, 2 mM L-glutamine, 50 ng/ml rh stem cell factor, 10 ng/ml rh GM-CSF, 10 ng/ml rh IL-3-Stem Cell Technologies, Vancouver, B.C.) supplemented with 3 units/ml of erythropoietin and 50 ng/ml G-CSF (R&D Systems, Minneapolis, Minn.). Colonies were scored after 10-14 days of culture.

normal specimens = assay: Free thiol analysis by mBBr labeling, normal specimens; assay type: cell-based, human; settings: 20 μM TDZD-8
Description: C. […] Intracellular thiol levels were assessed by flow cytometry after labeling with 50 μM monobromobimane (molecular probes).

[1] = test system: plasma membrane localized PKCα and β in primary CD34+ AML and ALL cells; assay: Immunoblot of membrane fractions for PKCα and PKCβ; assay type: cell-based, human; settings: TDZD-8 for 1 hour
Description: Immunoblots. Cells were prepared and analyzed as previously described.^35 Membrane fractions were prepared using mem-PER eukaryotic membrane protein extraction kit as per manufacturer's instructions (Pierce; Rockford, Ill.). Blots were probed with phospho-PKC (pan) (beta II; Ser660), phospho-PKCalpha/betaII (Thr638/641), total PKCα, PKCβ and FLT3 (Santa Cruz Biotechnology, Calif.), Caspase-3 (Cell Signaling technologies; Danvers, Mass.); caspase-8 and PARP (BD bioscience), cleaved PARP (abcam) or anti-actin (AC-15; Sigma) antibodies.

ABL1 = ABL1 (Homo sapiens, UniProt P00519); assay: Kinase assay; assay type: biochemical
Description: (§1) Kinase Assays: Single point and titration assays are performed using protocols (or essentially using protocols) know in the art for kinase activity profiling against a battery of kinase targets, including, for example, those specifically delineated herein. Such assays include, for example, those available from commercial sources, contract research laboratories, and the like.

AKT1 (PKB alpha) = AKT1 (PKB alpha) (Homo sapiens, UniProt P31749); assay: Kinase assay; assay type: biochemical
Description: as §1

BTK = BTK (Homo sapiens, UniProt Q06187); assay: Kinase assay; assay type: biochemical
Description: as §1

CDK1/cyclin B = CDK1/cyclin B (Homo sapiens, UniProt P06493); assay: Kinase assay; assay type: biochemical
Description: as §1

CHEK1 (CHK1) = CHEK1 (CHK1) (Homo sapiens, UniProt O14757); assay: Kinase assay; assay type: biochemical
Description: as §1

CSNK1G2 (CK1 gamma 2) = CSNK1G2 (CK1 gamma 2) (Homo sapiens, UniProt P78368); assay: Kinase assay; assay type: biochemical
Description: as §1

DYRK3 = DYRK3 (Homo sapiens, UniProt O43781); assay: Kinase assay; assay type: biochemical
Description: as §1

EPHA2 = EPHA2 (Homo sapiens, UniProt P29317); assay: Kinase assay; assay type: biochemical
Description: as §1

ERBB2 (HER2) = ERBB2 (HER2) (Homo sapiens, UniProt P04626); assay: Kinase assay; assay type: biochemical
Description: as §1

FGFR1 = FGFR1 (Homo sapiens, UniProt P11362); assay: Kinase assay; assay type: biochemical
Description: as §1

IGF1R = IGF1R (Homo sapiens, UniProt P08069); assay: Kinase assay; assay type: biochemical
Description: as §1

KDR (VEGFR2) = KDR (VEGFR2) (Homo sapiens, UniProt P35968); assay: Kinase assay; assay type: biochemical
Description: as §1

LCK = LCK (Homo sapiens, UniProt P06239); assay: Kinase assay; assay type: biochemical
Description: as §1

MAP2K1 (MEK1) = MAP2K1 (MEK1) (Homo sapiens, UniProt Q02750); assay: Kinase assay; assay type: biochemical
Description: as §1

MAPK14 (p38 alpha) = MAPK14 (p38 alpha) (Homo sapiens, UniProt Q16539); assay: Kinase assay; assay type: biochemical
Description: as §1

MAPK3 (ERK1) = MAPK3 (ERK1) (Homo sapiens, UniProt P27361); assay: Kinase assay; assay type: biochemical
Description: as §1

MET (cMet) = MET (cMet) (Homo sapiens, UniProt P08581); assay: Kinase assay; assay type: biochemical
Description: as §1

PDGFRB (PDGFR beta) = PDGFRB (PDGFR beta) (Homo sapiens, UniProt P09619); assay: Kinase assay; assay type: biochemical
Description: as §1

PHKG2 = PHKG2 (Homo sapiens, UniProt P15735); assay: Kinase assay; assay type: biochemical
Description: as §1

PIM1 = PIM1 (Homo sapiens, UniProt P11309); assay: Kinase assay; assay type: biochemical
Description: as §1

PRKACA (PKA) = PRKACA (PKA) (Homo sapiens, UniProt P17612); assay: Kinase assay; assay type: biochemical
Description: as §1

PRKCA (PKC alpha) = PRKCA (PKC alpha) (Homo sapiens, UniProt P17252); assay: Kinase assay; assay type: biochemical
Description: as §1

PRKCB2 (PKC beta II) = PRKCB2 (PKC beta II) (Homo sapiens, UniProt P05771); assay: Kinase assay; assay type: biochemical
Description: as §1

PRKCE (PKC epsilon) = PRKCE (PKC epsilon) (Homo sapiens, UniProt Q02156); assay: Kinase assay; assay type: biochemical
Description: as §1

PRKCQ (PKC theta) = PRKCQ (PKC theta) (Homo sapiens, UniProt Q04759); assay: Kinase assay; assay type: biochemical
Description: as §1

PRKCZ (PKC zeta) = PRKCZ (PKC zeta) (Homo sapiens, UniProt Q05513); assay: Kinase assay; assay type: biochemical
Description: as §1

ROCK1 = ROCK1 (Homo sapiens, UniProt Q13464); assay: Kinase assay; assay type: biochemical
Description: as §1

RPS6KA3 (RSK2) = RPS6KA3 (RSK2) (Homo sapiens, UniProt P51812); assay: Kinase assay; assay type: biochemical
Description: as §1

SYK = SYK (Homo sapiens, UniProt P43405); assay: Kinase assay; assay type: biochemical
Description: as §1

TEK (Tie2) = TEK (Tie2) (Homo sapiens, UniProt Q02763); assay: Kinase assay; assay type: biochemical
Description: as §1

Sequence of TEK (Tie2) (Q02763 23-1124, species assumed): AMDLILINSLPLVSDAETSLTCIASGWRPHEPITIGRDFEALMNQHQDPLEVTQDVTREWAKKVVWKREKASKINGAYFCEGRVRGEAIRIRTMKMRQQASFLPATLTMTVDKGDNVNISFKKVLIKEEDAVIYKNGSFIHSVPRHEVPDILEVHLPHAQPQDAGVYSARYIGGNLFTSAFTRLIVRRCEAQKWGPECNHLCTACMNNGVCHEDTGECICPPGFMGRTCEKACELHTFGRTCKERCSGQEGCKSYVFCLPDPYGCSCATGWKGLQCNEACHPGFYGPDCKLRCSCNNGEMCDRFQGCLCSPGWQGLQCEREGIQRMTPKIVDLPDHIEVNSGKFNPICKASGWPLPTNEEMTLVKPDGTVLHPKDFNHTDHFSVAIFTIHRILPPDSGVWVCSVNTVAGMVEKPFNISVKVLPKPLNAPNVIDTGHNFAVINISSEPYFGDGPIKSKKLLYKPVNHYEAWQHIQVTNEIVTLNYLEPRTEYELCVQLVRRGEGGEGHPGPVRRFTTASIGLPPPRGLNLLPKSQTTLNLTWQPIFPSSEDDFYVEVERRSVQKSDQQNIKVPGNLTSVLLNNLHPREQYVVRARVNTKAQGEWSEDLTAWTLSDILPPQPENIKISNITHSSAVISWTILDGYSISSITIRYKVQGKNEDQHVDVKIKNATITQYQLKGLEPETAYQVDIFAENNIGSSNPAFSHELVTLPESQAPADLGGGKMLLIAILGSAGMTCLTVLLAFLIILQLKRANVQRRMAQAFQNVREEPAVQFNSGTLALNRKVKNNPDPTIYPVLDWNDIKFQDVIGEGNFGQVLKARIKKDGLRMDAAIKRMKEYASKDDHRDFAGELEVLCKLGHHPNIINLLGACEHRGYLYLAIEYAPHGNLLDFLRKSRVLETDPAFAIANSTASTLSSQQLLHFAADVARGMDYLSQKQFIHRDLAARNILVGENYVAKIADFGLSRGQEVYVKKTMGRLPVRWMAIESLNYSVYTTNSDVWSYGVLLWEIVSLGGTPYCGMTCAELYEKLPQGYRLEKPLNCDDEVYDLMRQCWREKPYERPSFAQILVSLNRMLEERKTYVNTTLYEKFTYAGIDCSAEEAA
Sequence of PDGFRB (PDGFR beta) (P09619 33-1106): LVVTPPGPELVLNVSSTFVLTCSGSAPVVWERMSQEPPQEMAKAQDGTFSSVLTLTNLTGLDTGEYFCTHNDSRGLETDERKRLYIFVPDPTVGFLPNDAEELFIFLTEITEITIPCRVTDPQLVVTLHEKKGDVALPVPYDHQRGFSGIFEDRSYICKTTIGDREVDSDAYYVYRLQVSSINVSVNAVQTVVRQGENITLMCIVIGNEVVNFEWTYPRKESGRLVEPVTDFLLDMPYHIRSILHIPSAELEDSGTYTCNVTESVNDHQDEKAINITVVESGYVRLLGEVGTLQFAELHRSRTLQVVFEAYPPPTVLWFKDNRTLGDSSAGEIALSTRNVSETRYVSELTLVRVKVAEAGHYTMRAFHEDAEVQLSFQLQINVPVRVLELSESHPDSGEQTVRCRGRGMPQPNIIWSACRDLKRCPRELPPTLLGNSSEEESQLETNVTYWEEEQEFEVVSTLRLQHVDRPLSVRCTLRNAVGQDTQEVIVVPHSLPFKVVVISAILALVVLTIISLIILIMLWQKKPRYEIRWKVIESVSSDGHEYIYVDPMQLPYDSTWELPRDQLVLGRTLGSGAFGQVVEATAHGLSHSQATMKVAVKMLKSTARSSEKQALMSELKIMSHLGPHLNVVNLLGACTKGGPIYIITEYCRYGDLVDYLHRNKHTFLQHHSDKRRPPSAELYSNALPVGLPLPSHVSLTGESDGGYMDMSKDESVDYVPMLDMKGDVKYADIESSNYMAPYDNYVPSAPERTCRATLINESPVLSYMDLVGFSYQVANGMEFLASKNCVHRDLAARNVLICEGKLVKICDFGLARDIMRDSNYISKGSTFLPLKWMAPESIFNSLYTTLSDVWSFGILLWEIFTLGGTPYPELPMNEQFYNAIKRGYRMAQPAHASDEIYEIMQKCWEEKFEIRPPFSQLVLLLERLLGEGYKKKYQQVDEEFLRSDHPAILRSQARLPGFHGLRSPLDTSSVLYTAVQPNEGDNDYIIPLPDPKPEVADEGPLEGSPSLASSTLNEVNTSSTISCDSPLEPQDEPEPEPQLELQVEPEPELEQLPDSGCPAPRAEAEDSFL
Sequence of PRKCZ (PKC zeta) (Q05513 whole entry): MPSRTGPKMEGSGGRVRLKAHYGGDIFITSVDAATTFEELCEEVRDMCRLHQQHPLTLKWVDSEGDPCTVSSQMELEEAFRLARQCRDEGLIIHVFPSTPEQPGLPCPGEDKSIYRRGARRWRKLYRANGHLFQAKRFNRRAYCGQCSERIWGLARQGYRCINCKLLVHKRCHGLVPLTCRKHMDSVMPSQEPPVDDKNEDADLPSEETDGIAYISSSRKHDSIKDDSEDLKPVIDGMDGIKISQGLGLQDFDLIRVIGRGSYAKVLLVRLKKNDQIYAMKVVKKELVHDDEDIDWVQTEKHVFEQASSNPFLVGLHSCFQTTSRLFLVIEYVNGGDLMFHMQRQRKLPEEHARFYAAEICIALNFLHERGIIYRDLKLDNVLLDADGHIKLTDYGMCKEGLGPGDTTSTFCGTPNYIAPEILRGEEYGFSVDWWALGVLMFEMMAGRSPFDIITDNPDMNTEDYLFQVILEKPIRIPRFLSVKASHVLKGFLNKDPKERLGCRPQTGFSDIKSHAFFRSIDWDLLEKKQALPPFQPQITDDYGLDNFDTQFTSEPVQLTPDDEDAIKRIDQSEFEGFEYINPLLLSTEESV
Sequence of IGF1R (P08069 31-1367): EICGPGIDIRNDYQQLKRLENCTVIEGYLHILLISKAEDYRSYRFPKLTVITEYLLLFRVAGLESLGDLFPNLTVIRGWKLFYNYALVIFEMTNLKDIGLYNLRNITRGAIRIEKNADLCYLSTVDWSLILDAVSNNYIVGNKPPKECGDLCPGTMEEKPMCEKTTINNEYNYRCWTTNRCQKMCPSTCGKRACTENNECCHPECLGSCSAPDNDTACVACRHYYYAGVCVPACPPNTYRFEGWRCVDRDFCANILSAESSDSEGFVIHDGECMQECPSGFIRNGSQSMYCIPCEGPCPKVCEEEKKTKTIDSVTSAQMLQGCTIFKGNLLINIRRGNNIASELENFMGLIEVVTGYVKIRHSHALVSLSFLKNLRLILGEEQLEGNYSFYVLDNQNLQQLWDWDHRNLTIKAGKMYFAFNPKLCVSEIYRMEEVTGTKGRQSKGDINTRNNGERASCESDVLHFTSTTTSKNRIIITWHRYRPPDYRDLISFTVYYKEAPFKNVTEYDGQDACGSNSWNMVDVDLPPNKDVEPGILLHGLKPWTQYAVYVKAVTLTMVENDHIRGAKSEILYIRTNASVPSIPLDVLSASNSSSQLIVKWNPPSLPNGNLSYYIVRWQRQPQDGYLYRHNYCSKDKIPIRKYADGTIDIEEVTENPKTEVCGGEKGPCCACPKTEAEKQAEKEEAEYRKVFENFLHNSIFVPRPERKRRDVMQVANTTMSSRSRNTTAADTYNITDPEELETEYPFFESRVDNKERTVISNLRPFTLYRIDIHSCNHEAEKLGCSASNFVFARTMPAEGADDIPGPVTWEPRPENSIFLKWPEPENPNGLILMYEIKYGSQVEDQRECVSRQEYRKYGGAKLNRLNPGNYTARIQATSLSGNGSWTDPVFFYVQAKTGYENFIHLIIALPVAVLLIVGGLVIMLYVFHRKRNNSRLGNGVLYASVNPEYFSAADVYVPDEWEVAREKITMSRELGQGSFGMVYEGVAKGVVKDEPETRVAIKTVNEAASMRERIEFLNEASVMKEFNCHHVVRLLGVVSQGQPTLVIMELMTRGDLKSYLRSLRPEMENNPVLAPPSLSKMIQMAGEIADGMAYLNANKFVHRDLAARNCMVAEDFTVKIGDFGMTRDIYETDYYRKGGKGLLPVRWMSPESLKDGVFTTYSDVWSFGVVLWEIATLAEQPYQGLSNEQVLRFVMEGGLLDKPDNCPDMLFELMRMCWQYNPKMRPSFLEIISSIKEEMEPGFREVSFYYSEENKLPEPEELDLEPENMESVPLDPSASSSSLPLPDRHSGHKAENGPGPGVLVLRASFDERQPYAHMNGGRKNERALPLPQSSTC
Sequence of PRKCB2 (PKC beta II) (P05771 1-673 isoform P05771-2): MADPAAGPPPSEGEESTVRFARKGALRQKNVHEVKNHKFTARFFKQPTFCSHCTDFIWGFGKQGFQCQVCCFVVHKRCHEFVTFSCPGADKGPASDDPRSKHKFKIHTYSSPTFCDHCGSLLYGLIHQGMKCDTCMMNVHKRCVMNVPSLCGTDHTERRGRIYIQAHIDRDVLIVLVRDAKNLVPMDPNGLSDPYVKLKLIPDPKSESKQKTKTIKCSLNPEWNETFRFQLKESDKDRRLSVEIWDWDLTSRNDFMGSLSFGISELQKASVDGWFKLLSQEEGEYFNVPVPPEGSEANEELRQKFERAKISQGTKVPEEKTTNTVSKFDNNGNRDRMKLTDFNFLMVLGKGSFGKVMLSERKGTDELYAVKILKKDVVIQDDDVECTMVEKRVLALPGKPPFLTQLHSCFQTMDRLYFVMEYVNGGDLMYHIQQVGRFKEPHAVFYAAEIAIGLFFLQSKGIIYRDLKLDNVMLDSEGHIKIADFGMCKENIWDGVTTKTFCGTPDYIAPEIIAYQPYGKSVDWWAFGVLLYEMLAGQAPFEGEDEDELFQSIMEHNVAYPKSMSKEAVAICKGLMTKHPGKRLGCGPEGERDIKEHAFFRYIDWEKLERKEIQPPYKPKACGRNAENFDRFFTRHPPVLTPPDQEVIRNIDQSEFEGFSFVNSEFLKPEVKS
Sequence of PIM1 (P11309 whole entry): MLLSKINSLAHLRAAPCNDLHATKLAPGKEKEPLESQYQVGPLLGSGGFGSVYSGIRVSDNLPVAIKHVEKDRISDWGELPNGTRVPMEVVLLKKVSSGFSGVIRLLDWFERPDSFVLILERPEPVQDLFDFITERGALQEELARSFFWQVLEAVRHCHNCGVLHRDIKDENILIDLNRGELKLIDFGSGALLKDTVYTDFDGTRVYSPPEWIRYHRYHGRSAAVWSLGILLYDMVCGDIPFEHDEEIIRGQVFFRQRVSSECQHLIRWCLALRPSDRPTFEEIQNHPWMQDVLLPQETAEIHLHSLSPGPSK

## Cn1sc(=O)n(Cc2ccccc2)c1=O [TDZD-8, 4-benzyl-2-methyl-1,2,4-thiadiazolidine-3,5-dione]
bcCML progenitor cells
  CFU, normalized to untreated controls: 16.1%
Normal specimens
  mBBr staining (free thiol groups): only slight changes in mBBr staining
[1]
  plasma membrane localized PKCα and β: decreases
ABL1
  inhibition at 20 µM: 70%
AKT1 (PKB alpha)
  inhibition at 20 µM: 102%
BTK
  inhibition at 20 µM: 72%
CDK1/cyclin B
  inhibition at 20 µM: 15%
CHEK1 (CHK1)
  inhibition at 20 µM: 87%
CSNK1G2 (CK1 gamma 2)
  inhibition at 20 µM: 22%
DYRK3
  inhibition at 20 µM: 85%
EPHA2
  inhibition at 20 µM: 3%
ERBB2 (HER2)
  inhibition at 20 µM: 12%
FGFR1
  inhibition at 20 µM: 1%
IGF1R
  inhibition at 20 µM: -2%
KDR (VEGFR2)
  inhibition at 20 µM: 100%
LCK
  inhibition at 20 µM: -9%
MAP2K1 (MEK1)
  inhibition at 20 µM: 80%
MAPK14 (p38 alpha)
  inhibition at 20 µM: 97%
MAPK3 (ERK1)
  inhibition at 20 µM: 61%
MET (cMet)
  inhibition at 20 µM: 90%
PDGFRB (PDGFR beta)
  inhibition at 20 µM: -4%
PDGFRB (PDGFR beta); TDZD-8 20 μM
  % Inhibition mean: little to no inhibition
PHKG2
  inhibition at 20 µM: 80%
PIM1
  inhibition at 20 µM: 95%
PRKACA (PKA)
  inhibition at 20 µM: 18%
PRKCA (PKC alpha)
  inhibition at 20 µM: 102%
PRKCB2 (PKC beta II)
  inhibition at 20 µM: 99%
PRKCE (PKC epsilon)
  inhibition at 20 µM: 99%
PRKCQ (PKC theta)
  inhibition at 20 µM: 101%
PRKCZ (PKC zeta)
  inhibition at 20 µM: 100%
ROCK1
  inhibition at 20 µM: 113%
RPS6KA3 (RSK2)
  inhibition at 20 µM: 101%
SYK
  inhibition at 20 µM: 99%
TEK (Tie2)
  inhibition at 20 µM: 9%
TEK (Tie2); TDZD-8 20 μM
  % Inhibition mean: little to no inhibition
